Our source for the Ki values is patent US7388095B2, “5-substituted indole-2-carboxamide derivatives” (Hoffmann-La Roche Inc., priority 2005, dated 2008).

SMILES strings stand for the structures.

The target of this experiment is T1, histamine 3 receptor (H3R) (Homo sapiens, UniProt Q9Y5N1).
T1 construct: expressed in transfected cells; host or cells: CHO cells (HR3-CHO cell line), membrane preparation
T1 sequence (Q9Y5N1 whole entry): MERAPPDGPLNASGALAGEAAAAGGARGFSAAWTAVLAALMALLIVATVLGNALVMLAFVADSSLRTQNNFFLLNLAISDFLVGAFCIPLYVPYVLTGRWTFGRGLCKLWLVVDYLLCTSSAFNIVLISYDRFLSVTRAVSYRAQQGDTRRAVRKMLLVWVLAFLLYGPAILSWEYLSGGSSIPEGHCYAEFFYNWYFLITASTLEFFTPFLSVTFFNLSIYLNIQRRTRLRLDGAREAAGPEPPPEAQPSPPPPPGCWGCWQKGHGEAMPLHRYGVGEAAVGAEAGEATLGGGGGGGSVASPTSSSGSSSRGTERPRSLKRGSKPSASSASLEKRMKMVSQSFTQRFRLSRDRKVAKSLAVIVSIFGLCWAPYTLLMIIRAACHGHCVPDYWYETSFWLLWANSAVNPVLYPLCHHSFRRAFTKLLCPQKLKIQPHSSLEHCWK
Nature of the experiment: Competition binding assay with 3H-(R)α-methylhistamine on membranes of the human HR3-CHO cell line. As to conditions: 3H(R)α-methylhistamine 1 nM, Ki calculated from IC50 by Cheng-Prusoff equation. The method, then: Binding assay with ^3H-(R)α-methylhistamine
Saturation binding experiments were performed using HR3-CHO membranes prepared as described in Takahashi, K, Tokita, S., Kotani, H. (2003) J. Pharmacol. Exp. Therapeutics 307, 213-218.
An appropriate amount of membrane (60 to 80 μg protein/well) was incubated with increasing concentrations of ^3H(R)α-Methylhistamine di-hydrochloride (0.10 to 10 nM). Non-specific binding was determined using a […] excess of cold (R)α-methylhistamine dihydrobromide (500 nM final concentration). The incubation was carried out at room temperature (in deep-well plates shaking for three hours). The final volume in each well was 250 μl. The incubation was followed by rapid filtration on GF/B filters (pre-soaked with 100 μl of 0.5% PEI in Tris 50 mM shaking at 200 rpm for two hours). The filtration was made using a cell-harvester and the filter plates were then washed five times with ice cold washing buffer containing 0.5 M NaCl. After harvesting, the plates were dried at 55° C. for 60 min, then scintillation fluid (Microscint 40, 40 microl in each well) was added and the amount of radioactivity on the filter was determined with a Packard top-counter after shaking the plates for two hours at 200 rpm at room temperature.
Binding Buffer: 50 mM Tris-HCl pH 7.4 and 5 mM MgCl2x6H2O pH 7.4. Washing Buffer: 50 mM Tris-HCl pH 7.4 and 5 mM MgCl2x6H2O and 0.5 M NaCl pH 7.4.
Indirect measurement of affinity of H3R inverse agonists: twelve increasing concentrations (ranging from 10 μM to 0.3 nM) of the selected compounds were always tested in competition binding experiments using membrane of the human HR3-CHO cell line. An appropriate amount of protein, e.g. approximately 500 cpm binding of RAMH at Kd, were incubated for 1 hour at room temperature in 250 μl final volume in 96-well plates in presence of ^3H(R)α-methylhistamine (1 nM final concentration=Kd). […]
All compounds were tested at a single concentration in duplicates. […] Ki's were calculated from IC50 based on Cheng-Prusoff equation (Cheng, Y, Prusoff, W H (1973) Biochem Pharmacol 22, 3099-3108).
Regarding `O=C(c1cc2cc(OCCCN3CC4CC4C3)ccc2[nH]1)N1CCOCC1` (stereo not drawn) [Example 5, {5-[3-(3-Aza-bicyclo[3.1.0]hex-3-yl)-propoxy]-1H-indol-2-yl}-morpholin-4-yl-methanone], the Ki is 40 nM.
Under `CC(C)N1CCOC(COc2ccc3c(c2)cc(C(=O)N2CCOCC2)n3CC(F)(F)F)C1` (stereo not drawn) [Example 1, [5-(4-Isoopropyl-morpholin-2-ylmethoxy)-1-(2,2,2-trifluoro-ethyl)-1H-indol-2-yl]-morpholin-4-yl-methanone] stands 30 nM; under `O=C(c1cc2cc(OCCCN3CC4CC4C3)ccc2n1CC(F)(F)F)N1CCOCC1` (stereo not drawn) [Example 6, [5-[3-(3-Aza-bicyclo[3.1.0]hex-3-yl)-propoxy]-1-(2,2,2-trifluoro-ethyl)-1H-indol-2-yl]-morpholin-4-yl-methanone], 26 nM.
